Results: publication PMC5606850, “Acidic C-terminal domains autoregulate the RNA chaperone Hfq” (eLife, 2017)

Test system: ChiX sRNA and chiP mRNA
Experiment: ChiX sRNA-chiP mRNA annealing, EMSA
Format: biochemical, E. coli
Settings: 10 °C; for time to form ternary complex with ChiX and chiP: 5 nM ChiX, 30 nM chiP; for stability of ChiX·Hfq·chiP ternary complex: 33.3 nM Hfq hexamer, TNK buffer
Description: Figure 4. Shortening the CTD increases auto-inhibition by acidic residues. (A) Observed annealing rate constants for 100 nM target RNA and 50 nM molecular beacon with 0–200 nM Hfq hexamer at 30°C, measured by stopped-flow fluorescence. Black, Hfq102; red, Hfq-sCTD; cyan, Hfq65. (B) Fluorescence anisotropy assay for RNA binding and release. In stopped-flow FRET experiments, the dsRNA is released after pairing with its complementary strand ([Panja et al., 2013]; [Santiago-Frangos et al., 2016]). […] Remaining RNA was displaced from Hfq by excess ssDNA (400 nM DNA2). The averages and standard deviations for three trials are plotted for each Hfq variant. […] (D) Annealing of 5 nM ^32P-ChiX sRNA with 30 nM chiP mRNA without Hfq, or with Hfq65, Hfq102 or Hfq-sCTD, as indicated above each lane. Samples were loaded on a native polyacrylamide gel 60 min or 20 s after the components were mixed. Full gel images are in Figure 4—figure supplement 2. (E) Fractions of free ChiX (black), ChiX·chiP dsRNA (light grey), ChiX·Hfq·chiP ternary complex (hatched) and ChiX·Hfq binary complex (dark grey) after 4 min of annealing, as analyzed by EMSA (Figure 4—figure supplement 2). Figure 4—figure supplement 1. Effect of CTD length on RNA oligomer annealing kinetics. Annealing of 100 nM Target RNA to 50 nM beacon RNA by Hfq variants was measured by stopped flow fluorescence at 30°C in 1 × TNK buffer. (A) Target RNA annealed by Hfq65 (no CTD), Hfq102 (complete CTD) or Hfq-sCTD (shortened linker CTD). (B) Target-U6 (proximal) annealed by Hfq65, Hfq102 or Hfq-sCTD. (C) Target-A18 annealed Hfq65, Hfq102 or Hfq-sCTD. The change in fluorescence emission intensity was normalized to the maximum fluorescence within an experiment. The average of five measurements is shown per progress curve. Annealing data were also collected for 0–200 nM Hfq hexamer. All progress curves were fitted to single- or double-exponential rate equations to obtain kobs, as previously described ([Santiago-Frangos et al., 2016]). [drawing 7] Figure 4—figure supplement 2. Effect of CTD length on sRNA·mRNA annealing. EMSAs of the annealing of 5 nM ^32P-ChiX to 30 nM chiP ([Rasmussen et al., 2009]) at 10°C in 1 × TNK buffer. Reactions were done (A) without Hfq, or with 33.3 nM hexamer (B) Hfq102, (C) Hfq65 or (D) Hfq-sCTD, Control reactions with ChiX only, ChiX and chiP mRNA, ChiX and Hfq or three components were loaded at the beginning (left) and end (right) of each time course, as indicated above the lanes. In the absence of Hfq, only 20% of ChiX·chiP annealed after 30 min. In the presence of all Hfq variants, at least 50% ChiX was in a ternary complex containing ChiX·Hfq·chiP within 1 min, and annealing reached a plateau within 2 min.
To determine whether the above results on RNA oligomers apply to natural RNA substrates for Hfq, we examined the annealing of the Class II sRNA ChiX to the mRNA chiP via electrophoretic mobility shift assays (EMSAs). Because the mRNA targets of class II sRNAs interact with the rim of Hfq ([Schu et al., 2015]; [Małecka et al., 2015]), we reasoned that this sRNA-mRNA pair would be sensitive to displacement by the CTD. Low nanomolar amounts of ChiX and chiP anneal very slowly at 10°C, in the absence of Hfq (Figure 4—figure supplement 2). Whereas, Hfq102, Hfq65 and Hfq-sCTD all form a ternary complex with ChiX and chiP within 20 s (Figure 4D), reaching equilibrium in a few minutes (Figure 4—figure supplement 2). […] Less ternary complex was formed by Hfq102, and the least by Hfq-sCTD.

| Substance | time to form ternary complex with ChiX and chiP | stability of ChiX·Hfq·chiP ternary complex | ChiX-Hfq binary complex remaining (after 20 s) |
| --- | --- | --- | --- |
| Hfq65: truncated E. coli Hfq variant lacking the CTD | ≤ 20 s | most stable | almost no ChiX-Hfq65 binary complex remaining after 20 s |
| Hfq102: full-length E. coli Hfq | ≤ 20 s | medium | – |
